Organism: Rattus norvegicus
Experiment: DrugMatrix - Regimen: Daily Repeat
Type: toxicity, organism-based, Sprague-Dawley
Design: regimen Daily Repeat, gender Male, age 6-8 weeks
Conditions: in vivo, po, route oral GAVAGE, […]; for ABSOLUTE BASOPHIL / ABSOLUTE EOSINOPHIL / ABSOLUTE LYMPHOCYTE / ABSOLUTE MONOCYTE / ABSOLUTE SEGMENTED NEUTROPHIL / BASOPHIL / EOSINOPHIL / HEMATOCRIT / HEMOGLOBIN / LEUKOCYTE COUNT / LYMPHOCYTE / MEAN CORPUSCULAR HEMOGLOBIN / MEAN CORPUSCULAR HEMOGLOBIN CONCENTRATION / MEAN CORPUSCULAR VOLUME / MONOCYTE / NEUTROPHIL / NUCLEATED RED BLOOD CELLS / PLATELET COUNT: tissue Blood; for ALANINE AMINOTRANSFERASE / ALBUMIN / ALKALINE PHOSPHATASE / ASPARTATE AMINOTRANSFERASE / BLOOD UREA NITROGEN / CARBON DIOXIDE / CHLORIDE / CHOLESTEROL / CREATINE PHOSPHOKINASE / CREATININE / GLUCOSE / LACTATE DEHYDROGENASE / LIPASE / PHOSPHORUS / POTASSIUM / SODIUM / TOTAL BILIRUBIN / TOTAL PROTEIN / URIC ACID: tissue Plasma
[1] = 1 mg/kg, 72 h, dose level Low, time 3 day
[2] = 1 mg/kg, 120 h, dose level Low, time 5 day
[3] = 21 mg/kg, 72 h, dose level High, time 3 day
[4] = 21 mg/kg, 120 h, dose level High, time 5 day

## O=C(CCCN1CCC(O)(c2ccc(Cl)cc2)CC1)c1ccc(F)cc1 [HALOPERIDOL]
[1]
  ABSOLUTE BASOPHIL: 0 CELLS/uL
  ABSOLUTE EOSINOPHIL: 94.33 CELLS/uL
  ABSOLUTE LYMPHOCYTE: 11131.67 CELLS/uL
  ABSOLUTE MONOCYTE: 120.67 CELLS/uL
  ABSOLUTE SEGMENTED NEUTROPHIL: 1053.33 CELLS/uL
  BASOPHIL: 0%
  EOSINOPHIL: 0.67%
  HEMATOCRIT: 33.6%
  HEMOGLOBIN: 13.7 G/DL
  LEUKOCYTE COUNT: 12.4 x10E3/uL
  LYMPHOCYTE: 88.33%
  MEAN CORPUSCULAR HEMOGLOBIN: 25.53 pg
  MEAN CORPUSCULAR HEMOGLOBIN CONCENTRATION: 40.8 G/DL
  MEAN CORPUSCULAR VOLUME: 62.6 fL
  MONOCYTE: 1%
  NEUTROPHIL: 10%
  NUCLEATED RED BLOOD CELLS: 0 /100WBC
  PLATELET COUNT: 969 x10E3/uL
  ALANINE AMINOTRANSFERASE: 88.67 u/L
  ALBUMIN: 3.97 G/DL
  ALKALINE PHOSPHATASE: 450 u/L
  ASPARTATE AMINOTRANSFERASE: 97.33 u/L
  BLOOD UREA NITROGEN: 12.33 mg/dL
  CARBON DIOXIDE: 31.67 mmol/L
  CHLORIDE: 97 MEQ/L
  CHOLESTEROL: 75.67 mg/dL
  CREATINE PHOSPHOKINASE: 318.67 u/L
  CREATININE: 0.13 mg/dL
  GLUCOSE: 163.67 mg/dL
  LACTATE DEHYDROGENASE: 170 u/L
  LIPASE: 15 u/L
  PHOSPHORUS: 11.33 mg/dL
  POTASSIUM: 6.08 MEQ/L
  SODIUM: 142.45 MEQ/L
  TOTAL BILIRUBIN: 0.17 mg/dL
  TOTAL PROTEIN: 5.67 G/DL
  URIC ACID: 1 mg/dL
[2]
  ABSOLUTE BASOPHIL: 0 CELLS/uL
  ABSOLUTE EOSINOPHIL: 0 CELLS/uL
  ABSOLUTE LYMPHOCYTE: 12900 CELLS/uL
  ABSOLUTE MONOCYTE: 131.67 CELLS/uL
  ABSOLUTE SEGMENTED NEUTROPHIL: 1068.33 CELLS/uL
  BASOPHIL: 0%
  EOSINOPHIL: 0%
  HEMATOCRIT: 34.63%
  HEMOGLOBIN: 14.03 G/DL
  LEUKOCYTE COUNT: 14.1 x10E3/uL
  LYMPHOCYTE: 91.67%
  MEAN CORPUSCULAR HEMOGLOBIN: 25.73 pg
  MEAN CORPUSCULAR HEMOGLOBIN CONCENTRATION: 40.5 G/DL
  MEAN CORPUSCULAR VOLUME: 63.57 fL
  MONOCYTE: 1%
  NEUTROPHIL: 7.33%
  NUCLEATED RED BLOOD CELLS: 0 /100WBC
  PLATELET COUNT: 1083 x10E3/uL
  ALANINE AMINOTRANSFERASE: 51 u/L
  ALBUMIN: 4.17 G/DL
  ALKALINE PHOSPHATASE: 383.33 u/L
  ASPARTATE AMINOTRANSFERASE: 81.33 u/L
  BLOOD UREA NITROGEN: 16.33 mg/dL
  CARBON DIOXIDE: 25.67 mmol/L
  CHLORIDE: 102 MEQ/L
  CHOLESTEROL: 77.33 mg/dL
  CREATINE PHOSPHOKINASE: 323.67 u/L
  CREATININE: 0.18 mg/dL
  GLUCOSE: 144 mg/dL
  LACTATE DEHYDROGENASE: 223.33 u/L
  LIPASE: 11.33 u/L
  PHOSPHORUS: 10.8 mg/dL
  POTASSIUM: 6.15 MEQ/L
  SODIUM: 143.13 MEQ/L
  TOTAL BILIRUBIN: 0.17 mg/dL
  TOTAL PROTEIN: 5.77 G/DL
  URIC ACID: 1.17 mg/dL
[3]
  ABSOLUTE BASOPHIL: 0 CELLS/uL
  ABSOLUTE EOSINOPHIL: 71.67 CELLS/uL
  ABSOLUTE LYMPHOCYTE: 13503.67 CELLS/uL
  ABSOLUTE MONOCYTE: 143.33 CELLS/uL
  ABSOLUTE SEGMENTED NEUTROPHIL: 1014.67 CELLS/uL
  BASOPHIL: 0%
  EOSINOPHIL: 0.33%
  HEMATOCRIT: 37.23%
  HEMOGLOBIN: 14.77 G/DL
  LEUKOCYTE COUNT: 14.73 x10E3/uL
  LYMPHOCYTE: 92.33%
  MEAN CORPUSCULAR HEMOGLOBIN: 23.97 pg
  MEAN CORPUSCULAR HEMOGLOBIN CONCENTRATION: 39.67 G/DL
  MEAN CORPUSCULAR VOLUME: 60.4 fL
  MONOCYTE: 0.67%
  NEUTROPHIL: 6.67%
  NUCLEATED RED BLOOD CELLS: 0 /100WBC
  PLATELET COUNT: 1422.33 x10E3/uL
  ALANINE AMINOTRANSFERASE: 42.33 u/L
  ALBUMIN: 4.2 G/DL
  ALKALINE PHOSPHATASE: 358.33 u/L
  ASPARTATE AMINOTRANSFERASE: 92.33 u/L
  BLOOD UREA NITROGEN: 16.33 mg/dL
  CARBON DIOXIDE: 22.67 mmol/L
  CHLORIDE: 103.67 MEQ/L
  CHOLESTEROL: 58 mg/dL
  CREATINE PHOSPHOKINASE: 803 u/L
  CREATININE: 0.18 mg/dL
  GLUCOSE: 168 mg/dL
  LACTATE DEHYDROGENASE: 310 u/L
  LIPASE: 11.33 u/L
  PHOSPHORUS: 12.4 mg/dL
  POTASSIUM: 6.38 MEQ/L
  SODIUM: 143.4 MEQ/L
  TOTAL BILIRUBIN: 0.13 mg/dL
  TOTAL PROTEIN: 5.9 G/DL
  URIC ACID: 2.07 mg/dL
[4]
  ABSOLUTE BASOPHIL: 0 CELLS/uL
  ABSOLUTE EOSINOPHIL: 46.33 CELLS/uL
  ABSOLUTE LYMPHOCYTE: 13529.67 CELLS/uL
  ABSOLUTE MONOCYTE: 94 CELLS/uL
  ABSOLUTE SEGMENTED NEUTROPHIL: 1530 CELLS/uL
  BASOPHIL: 0%
  EOSINOPHIL: 0.33%
  HEMATOCRIT: 35.97%
  HEMOGLOBIN: 14.07 G/DL
  LEUKOCYTE COUNT: 15.2 x10E3/uL
  LYMPHOCYTE: 88.67%
  MEAN CORPUSCULAR HEMOGLOBIN: 23.57 pg
  MEAN CORPUSCULAR HEMOGLOBIN CONCENTRATION: 39.13 G/DL
  MEAN CORPUSCULAR VOLUME: 60.3 fL
  MONOCYTE: 0.67%
  NEUTROPHIL: 10.33%
  NUCLEATED RED BLOOD CELLS: 0.33 /100WBC
  PLATELET COUNT: 1209.33 x10E3/uL
  ALANINE AMINOTRANSFERASE: 53 u/L
  ALBUMIN: 4.13 G/DL
  ALKALINE PHOSPHATASE: 352.33 u/L
  ASPARTATE AMINOTRANSFERASE: 80.33 u/L
  BLOOD UREA NITROGEN: 17.33 mg/dL
  CARBON DIOXIDE: 23 mmol/L
  CHLORIDE: 103.33 MEQ/L
  CHOLESTEROL: 69 mg/dL
  CREATINE PHOSPHOKINASE: 224.67 u/L
  CREATININE: 0.18 mg/dL
  GLUCOSE: 201.67 mg/dL
  LACTATE DEHYDROGENASE: 239 u/L
  LIPASE: 11.33 u/L
  PHOSPHORUS: 11.33 mg/dL
  POTASSIUM: 6.19 MEQ/L
  SODIUM: 143.37 MEQ/L
  TOTAL BILIRUBIN: 0.2 mg/dL
  TOTAL PROTEIN: 5.63 G/DL
  URIC ACID: 1.4 mg/dL

From ChEMBL document CHEMBL3885881, “DrugMatrix”
